Laboratory results reported in BigSolDB 2.1.

O=P(O)(O)c1ccccc1
Conditions	solubility (mole fraction)
in 1,4-dioxane, 288.15 K	0.186
in 1,4-dioxane, 293.15 K	0.208
in 1,4-dioxane, 298.15 K	0.224
in 1,4-dioxane, 303.15 K	0.243
in 1,4-dioxane, 308.15 K	0.264
in 1,4-dioxane, 313.15 K	0.286
in 1,4-dioxane, 318.15 K	0.307
in 1,4-dioxane, 323.15 K	0.336
in 1,4-dioxane, 328.15 K	0.36
in 1,4-dioxane, 333.15 K	0.388
in 2-butoxyethanol, 278.15 K	0.199
in 2-butoxyethanol, 283.15 K	0.208
in 2-butoxyethanol, 288.15 K	0.218
in 2-butoxyethanol, 293.15 K	0.231
in 2-butoxyethanol, 298.15 K	0.243
in 2-butoxyethanol, 303.15 K	0.258
in 2-butoxyethanol, 308.15 K	0.27
in 2-butoxyethanol, 313.15 K	0.283
in 2-butoxyethanol, 318.15 K	0.298
in 2-butoxyethanol, 323.15 K	0.317
in 2-butoxyethanol, 328.15 K	0.334
in 2-butoxyethanol, 333.15 K	0.355
in 2-ethoxyethanol, 278.15 K	0.305
in 2-ethoxyethanol, 283.15 K	0.317
in 2-ethoxyethanol, 288.15 K	0.327
in 2-ethoxyethanol, 293.15 K	0.339
in 2-ethoxyethanol, 298.15 K	0.35
in 2-ethoxyethanol, 303.15 K	0.363
in 2-ethoxyethanol, 308.15 K	0.378
in 2-ethoxyethanol, 313.15 K	0.391
in 2-ethoxyethanol, 318.15 K	0.404
in 2-ethoxyethanol, 323.15 K	0.42
in 2-ethoxyethanol, 328.15 K	0.439
in 2-ethoxyethanol, 333.15 K	0.454
in 2-methoxyethanol, 278.15 K	0.342
in 2-methoxyethanol, 283.15 K	0.348
in 2-methoxyethanol, 288.15 K	0.359
in 2-methoxyethanol, 293.15 K	0.371
in 2-methoxyethanol, 298.15 K	0.383
in 2-methoxyethanol, 303.15 K	0.397
in 2-methoxyethanol, 308.15 K	0.408
in 2-methoxyethanol, 313.15 K	0.425
in 2-methoxyethanol, 318.15 K	0.439
in 2-methoxyethanol, 323.15 K	0.453
in 2-methoxyethanol, 328.15 K	0.468
in 2-methoxyethanol, 333.15 K	0.483
in 2-propoxyethanol, 278.15 K	0.244
in 2-propoxyethanol, 283.15 K	0.257
in 2-propoxyethanol, 288.15 K	0.266
in 2-propoxyethanol, 293.15 K	0.28
in 2-propoxyethanol, 298.15 K	0.295
in 2-propoxyethanol, 303.15 K	0.307
in 2-propoxyethanol, 308.15 K	0.318
in 2-propoxyethanol, 313.15 K	0.336
in 2-propoxyethanol, 318.15 K	0.349
in 2-propoxyethanol, 323.15 K	0.368
in 2-propoxyethanol, 328.15 K	0.382
in 2-propoxyethanol, 333.15 K	0.401
in acetone, 273.15 K	0.0872
in acetone, 278.15 K	0.101
in acetone, 283.15 K	0.113
in acetone, 288.15 K	0.13
in acetone, 293.15 K	0.144
in acetone, 298.15 K	0.162
in acetone, 303.15 K	0.178
in acetone, 308.15 K	0.201
in acetone, 313.15 K	0.223
in acetone, 318.15 K	0.249
in ethanol, 278.15 K	0.288
in ethanol, 283.15 K	0.295
in ethanol, 288.15 K	0.305
in ethanol, 293.15 K	0.314
in ethanol, 298.15 K	0.326
in ethanol, 303.15 K	0.334
in ethanol, 308.15 K	0.347
in ethanol, 313.15 K	0.357
in ethanol, 318.15 K	0.371
in ethanol, 323.15 K	0.383
in ethanol, 328.15 K	0.394
in ethanol, 333.15 K	0.407
in isopropanol, 278.15 K	0.24
in isopropanol, 283.15 K	0.251
in isopropanol, 288.15 K	0.265
in isopropanol, 293.15 K	0.277
in isopropanol, 298.15 K	0.291
in isopropanol, 303.15 K	0.307
in isopropanol, 308.15 K	0.317
in isopropanol, 313.15 K	0.331
in isopropanol, 318.15 K	0.346
in isopropanol, 323.15 K	0.361
in isopropanol, 328.15 K	0.376
in isopropanol, 333.15 K	0.394
in methanol, 273.15 K	0.29
in methanol, 278.15 K	0.299
in methanol, 283.15 K	0.307
in methanol, 288.15 K	0.315
in methanol, 293.15 K	0.324
in methanol, 298.15 K	0.335
in methanol, 303.15 K	0.347
in methanol, 308.15 K	0.357
in methanol, 313.15 K	0.369
in methanol, 318.15 K	0.38
in n-butanol, 278.15 K	0.193
in n-butanol, 283.15 K	0.204
in n-butanol, 288.15 K	0.22
in n-butanol, 293.15 K	0.232
in n-butanol, 298.15 K	0.248
in n-butanol, 303.15 K	0.26
in n-butanol, 308.15 K	0.273
in n-butanol, 313.15 K	0.29
in n-butanol, 318.15 K	0.304
in n-butanol, 323.15 K	0.321
in n-butanol, 328.15 K	0.337
in n-butanol, 333.15 K	0.354
in n-heptanol, 278.15 K	0.122
in n-heptanol, 283.15 K	0.133
in n-heptanol, 288.15 K	0.143
in n-heptanol, 293.15 K	0.158
in n-heptanol, 298.15 K	0.17
in n-heptanol, 303.15 K	0.183
in n-heptanol, 308.15 K	0.196
in n-heptanol, 313.15 K	0.212
in n-heptanol, 318.15 K	0.227
in n-heptanol, 323.15 K	0.243
in n-heptanol, 328.15 K	0.26
in n-heptanol, 333.15 K	0.278
in n-hexanol, 278.15 K	0.134
in n-hexanol, 283.15 K	0.146
in n-hexanol, 288.15 K	0.159
in n-hexanol, 293.15 K	0.174
in n-hexanol, 298.15 K	0.188
in n-hexanol, 303.15 K	0.202
in n-hexanol, 308.15 K	0.218
in n-hexanol, 313.15 K	0.23
in n-hexanol, 318.15 K	0.245
in n-hexanol, 323.15 K	0.26
in n-hexanol, 328.15 K	0.278
in n-hexanol, 333.15 K	0.297
in n-octanol, 278.15 K	0.0997
in n-octanol, 283.15 K	0.11
in n-octanol, 288.15 K	0.123
in n-octanol, 293.15 K	0.134
in n-octanol, 298.15 K	0.147
in n-octanol, 303.15 K	0.161
in n-octanol, 308.15 K	0.177
in n-octanol, 313.15 K	0.189
in n-octanol, 318.15 K	0.202
in n-octanol, 323.15 K	0.218
in n-octanol, 328.15 K	0.234
in n-octanol, 333.15 K	0.252
in n-pentanol, 278.15 K	0.161
in n-pentanol, 283.15 K	0.175
in n-pentanol, 288.15 K	0.186
in n-pentanol, 293.15 K	0.199
in n-pentanol, 298.15 K	0.212
in n-pentanol, 303.15 K	0.226
in n-pentanol, 308.15 K	0.242
in n-pentanol, 313.15 K	0.258
in n-pentanol, 318.15 K	0.273
in n-pentanol, 323.15 K	0.287
in n-pentanol, 328.15 K	0.308
in n-pentanol, 333.15 K	0.323
in n-propanol, 278.15 K	0.236
in n-propanol, 283.15 K	0.248
in n-propanol, 288.15 K	0.262
in n-propanol, 293.15 K	0.271
in n-propanol, 298.15 K	0.286
in n-propanol, 303.15 K	0.296
in n-propanol, 308.15 K	0.311
in n-propanol, 313.15 K	0.321
in n-propanol, 318.15 K	0.332
in n-propanol, 323.15 K	0.347
in n-propanol, 328.15 K	0.361
in n-propanol, 333.15 K	0.375
